Source: US9969752B2, “Inhibitors of HIF prolyl hydroxylase” (MERCK SHARP & DOHME CORP., priority 2014, dated 2018)
pIC50: −log10 of the molar value.

The compounds below were run against T1, Human HIF-PHD2 (Homo sapiens, UniProt Q9GZT9) (assay: Inhibition of the hydroxylation of a HIF peptide by PHD2 (time resolved fluorescence, 384-well)). Conditions: FLAG-tagged full length PHD2; 0.2 μM 2-oxoglutarate, 0.5 μM HIF-1α peptide; 45 minutes at room temperature; read-out: Human HIF-PHD2 IC50.
T1 construct: FLAG-tagged full length PHD2 expressed in and purified from baculovirus-infected Sf9 cells; FLAG; made in house; host or cells: baculovirus-infected Sf9 cells
Type: biochemical
Description: To each well of a 384-well plate, 1 μL of test compounds in DMSO (final concentration ranging from 0.3 nM to 10 uM) were added into 20 μl of assay buffer (50 mM Tris pH 7.4/0.01% Tween-20/0.1 mg/ml bovine serum albumin/10 μM ferrous sulfate/1 mM sodium ascorbate/20 μg/ml catalase) containing 0.15 μg/ml FLAG-tagged full length PHD2 expressed in and purified from baculovirus-infected Sf9 cells. After a 5 min preincubation at room temperature, the enzymatic reactions were initiated by the addition of 4 μL of substrates {final concentrations of 0.2 μM 2-oxoglutarate and 0.5 μM HIF-1α peptide biotinyl-[…] […] After incubation for 45 minutes at room temperature, the reactions were terminated by the addition of a 25 μL quench/detection mix to a final concentration of 1 mM ortho-phenanthroline, 0.1 mM EDTA, 0.5 nM anti-(His)6 LANCE reagent (Perkin-Elmer Life Sciences), 100 nM AF647-labeled streptavidin (Invitrogen), and 2 μg/ml (His)6-VHL complex {S. Tan Protein Expr. Purif.

T1 sequence (Q9GZT9 whole entry): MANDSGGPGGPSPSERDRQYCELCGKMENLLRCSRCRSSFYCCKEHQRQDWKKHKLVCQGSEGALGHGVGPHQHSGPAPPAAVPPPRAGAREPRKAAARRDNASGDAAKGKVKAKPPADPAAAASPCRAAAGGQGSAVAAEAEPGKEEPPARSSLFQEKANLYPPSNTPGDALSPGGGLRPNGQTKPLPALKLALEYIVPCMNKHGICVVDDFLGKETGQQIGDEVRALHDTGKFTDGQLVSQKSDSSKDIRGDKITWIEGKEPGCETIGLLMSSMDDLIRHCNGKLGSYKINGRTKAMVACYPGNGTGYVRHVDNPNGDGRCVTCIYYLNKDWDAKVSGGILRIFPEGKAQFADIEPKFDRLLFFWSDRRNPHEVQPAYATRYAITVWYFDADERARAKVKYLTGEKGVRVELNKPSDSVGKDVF

| pIC50 | SMILES |
| --- | --- |
| 8.57 | O=C(O)CNC(=O)c1c(O)c2cc(O)cc3c2n(c1=O)CC(c1ccc(C(F)(F)F)cc1)O3 (stereo not drawn) [Example 82, 2-(7,9-Dihydroxy-5-oxo-2-(4-(trifluoromethyl)phenyl)-3,5-dihydro-2H-[1,4]oxazino[2,3,4-ij]quinoline-6-carboxamido)acetic acid] |
| 8.49 | CC(=O)c1cc2c3c(c1)c(O)c(C(=O)NCC(=O)O)c(=O)n3C(Cc1ccc(C(F)(F)F)cc1)CO2 (stereo not drawn) [Example 34, 2-(9-acetyl-7-hydroxy-5-oxo-3-(4-(trifluoromethyl)benzyl)-3,5-dihydro-2H-[1,4]oxazino[2,3,4-ij]quinoline-6-carboxamido)acetic acid] |
| 8.96 | N#Cc1ccc(C2Cn3c(=O)c(C(=O)NCC(=O)O)c(O)c4c(C#N)ccc(c43)O2)cc1 (stereo not drawn) [Example 54, 2-(8-Cyano-2-(4-cyanophenyl)-7-hydroxy-5-oxo-3,5-dihydro-2H-[1,4]oxazino[2,3,4-ij]quinoline-6-carboxamido)acetic acid] |
| 9.00 | N#Cc1ccc2c3c1c(O)c(C(=O)NCC(=O)O)c(=O)n3CC(c1ccc(C(F)(F)F)cc1)O2 (stereo not drawn) [Example 13, 2-(8-Cyano-7-hydroxy-5-oxo-2-(4-(trifluoromethyl)phenyl)-3,5-dihydro-2H-[1,4]oxazino[2,3,4-ij]quinoline-6-carboxamido)acetic acid] |
| 8.46 | O=C(O)CNC(=O)c1c(O)c2cc(Br)cc3c2n(c1=O)CC(c1ccc(Br)cc1)O3 (stereo not drawn) [Example 53, 2-(9-Bromo-2-(4-bromophenyl)-7-hydroxy-5-oxo-3,5-dihydro-2H-[1,4]oxazino[2,3,4-ij]quinoline-6-carboxamido)acetic acid] |
| 8.52 | CN1c2cc(C#N)cc3c(O)c(C(=O)NCC(=O)O)c(=O)n(c23)CC1c1ccc(C(F)(F)F)cc1 (stereo not drawn) [Example 96, 2-(9-Cyano-7-hydroxy-1-methyl-5-oxo-2-(4-(trifluoromethyl)phenyl)-1,2,3,5-tetrahydropyrido[1,2,3-de]quinoxaline-6-carboxamido)acetic acid] |
| 9.30 | N#Cc1ccc(C2Cn3c(=O)c(C(=O)NCC(=O)O)c(O)c4cc(C#N)cc(c43)O2)cc1 (stereo not drawn) [Example 52, 2-(9-Cyano-2-(4-cyanophenyl)-7-hydroxy-5-oxo-3,5-dihydro-2H-[1,4]oxazino[2,3,4-ij]quinoline-6-carboxamido)acetic acid] |
| 8.85 | CS(=O)(=O)c1cc2c3c(c1)c(O)c(C(=O)NCC(=O)O)c(=O)n3CCC2 [Example 49, 2-(1-Hydroxy-9-(methylsulfonyl)-3-oxo-3,5,6,7-tetrahydropyrido[3,2,1-ij]quinoline-2-carboxamido)acetic acid] |
| 7.86 | O=C(O)CNC(=O)c1c(O)c2c(F)ccc3c2n(c1=O)C(c1ccc(C(F)(F)F)cc1)CS3 (stereo not drawn) [Example 98, 2-(8-Fluoro-7-hydroxy-5-oxo-3-(4-(trifluoromethyl)phenyl)-3,5-dihydro-2H-[1,4]thiazino[2,3,4-ij]quinoline-6-carboxamido)acetic acid] |
| 8.96 | CS(=O)(=O)c1ccc2c(O)c(C(=O)NCC(=O)O)c(=O)n3c2c1CCC3 [Example 45, 2-(1-Hydroxy-8-(methylsulfonyl)-3-oxo-3,5,6,7-tetrahydropyrido[3,2,1-ij]quinoline-2-carboxamido)acetic acid] |
| 7.41 | Cc1ccc2c3c1c(O)c(C(=O)NCC(=O)O)c(=O)n3C(Cc1ccc(C(F)(F)F)cc1)CO2 (stereo not drawn) [Example 30, 2-(7-Hydroxy-8-methyl-5-oxo-3-(4-(trifluoromethyl)benzyl)-3,5-dihydro-2H-[1,4]oxazino[2,3,4-ij]quinoline-6-carboxamido)acetic acid] |
| 8.38 | N#Cc1ccc2c(O)c(C(=O)NCC(=O)O)c(=O)n3c2c1NC(c1cncs1)C3 (stereo not drawn) [Example 109, 2-(10-Cyano-7-hydroxy-5-oxo-2-(thiazol-5-yl)-1,2,3,5-tetrahydropyrido[1,2,3-de]quinoxaline-6-carboxamido)acetic acid] |
| 7.82 | O=C(O)CNC(=O)c1c(O)c2cccc3c2n(c1=O)C(c1cncs1)CN3 (stereo not drawn) [Example 111, 2-(7-Hydroxy-5-oxo-3-(thiazol-5-yl)-1,2,3,5-tetrahydropyrido[1,2,3-de]quinoxaline-6-carboxamido)acetic acid] |
| 9.22 | N#Cc1ccc(C2Cn3c(=O)c(C(=O)NCC(=O)O)c(O)c4ccc(C#N)c(c43)O2)cc1 (stereo not drawn) [Example 56, 2-(10-Cyano-2-(4-cyanophenyl)-7-hydroxy-5-oxo-3,5-dihydro-2H-[1,4]oxazino[2,3,4-ij]quinoline-6-carboxamido)acetic acid] |
| 8.80 | CS(=O)(=O)c1ccc2c(O)c(C(=O)NCC(=O)O)c(=O)n3c2c1OCC3 [Example 38, 2-(7-Hydroxy-10-(methylsulfonyl)-5-oxo-3,5-dihydro-2H-[1,4]oxazino[2,3,4-ij]quinoline-6-carboxamido)acetic acid] |
| 8.74 | O=C(O)CNC(=O)c1c(O)c2c(Cl)ccc3c2n(c1=O)CC(c1ccc(C(F)(F)F)cc1)O3 (single isomer, unassigned) [Example 70, 2-(8-Chloro-7-hydroxy-5-oxo-2-(4-(trifluoromethyl)phenyl)-3,5-dihydro-2H-[1,4]oxazino[2,3,4-ij]quinoline-6-carboxamido)acetic acid] |
| 7.47 | O=C(O)CNC(=O)c1c(O)c2cccc3c2n(c1=O)C(c1ccc(C(F)(F)F)cc1)CO3 (single isomer, unassigned) [Example 1a, 2-(7-Hydroxy-5-oxo-3-(4-(trifluoromethyl)phenyl)-3,5-dihydro-2H-[1,4]oxazino[2,3,4-ij]quinoline-6-carboxamido)acetic acid] |
| 8.07 | O=C(O)CNC(=O)c1c(O)c2cccc3c2n(c1=O)C(c1ccc(C(F)(F)F)cc1)CS3(=O)=O (stereo not drawn) [Example 101, 2-(7-hydroxy-1,1-dioxido-5-oxo-3-(4-(trifluoromethyl)phenyl)-3,5-dihydro-2H-[1,4]thiazino[2,3,4-ij]quinoline-6-carboxamido)acetic acid] |
| 7.26 | CN1CC(c2ccc(C(F)(F)F)cc2)n2c(=O)c(C(=O)NCC(=O)O)c(O)c3ccc(F)c1c32 (stereo not drawn) [Example 117, 2-(10-Fluoro-7-hydroxy-1-methyl-5-oxo-3-(4-(trifluoromethyl)phenyl)-1,2,3,5-tetrahydropyrido[1,2,3-de]quinoxaline-6-carboxamido)acetic acid] |
| 7.77 | CC(C)(O)c1cc2c3c(c1)c(O)c(C(=O)NCC(=O)O)c(=O)n3C(Cc1ccc(C(F)(F)F)cc1)CO2 (stereo not drawn) [Example 36, 2-(7-Hydroxy-9-(2-hydroxypropan-2-yl)-5-oxo-3-(4-(trifluoromethyl)benzyl)-3,5-dihydro-2H-[1,4]oxazino[2,3,4-ij]quinoline-6-carboxamido)acetic acid] |
| 7.42 | CS(=O)(=O)Nc1ccc(-c2ccc3c(O)c(C(=O)NCC(=O)O)c(=O)n4c3c2OCC4c2ccc(C(F)(F)F)cc2)cc1 (stereo not drawn) [Example 134, N-[(7-Hydroxy-10-{4-[(methylsulfonyl)amino]phenyl}-5-oxo-3-[4-(trifluoromethyl)phenyl]-2,3-dihydro-5H-[1,4]oxazino[2,3,4-ij]quinolin-6-yl)carbonyl]glycine] |

Same assay, conditions: FLAG-tagged full length PHD2; 0.2 μM 2-oxoglutarate, 0.5 μM HIF-1α peptide; 45 minutes at room temperature; read-out: MS m/z (M + 1)+ and human HIF-PHD2 IC50

| pIC50 | SMILES |
| --- | --- |
| 8.10 | N#Cc1ccc(C2Cn3c(=O)c(C(=O)NCC(=O)O)c(O)c4ccc(C(F)(F)F)c(c43)O2)cc1 (single isomer, unassigned) [Example 78, 2-(2-(4-cyanophenyl)-7-hydroxy-10-(trifluoromethyl)-3,5-dihydro-2H-[1,4]oxazino[2,3,4-ij]quinoline-6-carboxamido)acetic acid] |
| 7.89 | N#Cc1cccc(-c2ccc(C3COc4cccc5c(O)c(C(=O)NCC(=O)O)c(=O)n3c45)cc2)c1 (stereo not drawn) [Example 150, N-{[3-(3′-cyanobiphenyl-4-yl)-7-hydroxy-5-oxo-2,3-dihydro-5H-[1,4]oxazino[2,3,4-ij]quinolin-6-yl]carbonyl}glycine] |
| 7.92 | O=C(O)CNC(=O)c1c(O)c2ccc(-c3cncnc3)c3c2n(c1=O)C(c1ccc(C(F)(F)F)cc1)CO3 (stereo not drawn) [Example 138, N-({7-hydroxy-5-oxo-10-pyrimidin-5-yl-3-[4-(trifluoromethyl)phenyl]-2,3-dihydro-5H-[1,4]oxazino[2,3,4-ij]quinolin-6-yl}carbonyl)glycine] |
| 8.11 | O=C(O)CNC(=O)c1c(O)c2c(Br)ccc3c2n(c1=O)C(c1cncs1)CO3 (stereo not drawn) [Example 176, 2-(8-bromo-7-hydroxy-5-oxo-3-(thiazol-5-yl)-3,5-dihydro-2H-[1,4]oxazino[2,3,4-ij]quinoline-6-carboxamido)acetic acid] |
| 8.55 | O=C(O)CNC(=O)c1c(O)c2ccc(Cl)c3c2n(c1=O)CC(c1ccc(C(F)(F)F)cc1)O3 (single isomer, unassigned) [Example 73, 2-(10-chloro-7-hydroxy-5-oxo-2-(4-(trifluoromethyl)phenyl)-3,5-dihydro-2H-[1,4]oxazino[2,3,4-ij]quinoline-6-carboxamido)acetic acid] |
| 8.27 | O=C(O)CNC(=O)c1c(O)c2ccc(Br)c3c2n(c1=O)C(c1cncs1)CO3 (stereo not drawn) [Example 177, 2-(10-bromo-7-hydroxy-5-oxo-3-(thiazol-5-yl)-3,5-dihydro-2H-[1,4]oxazino[2,3,4-ij]quinoline-6-carboxamido)acetic acid] |
